Measurements: the supplement of paper PMC10307832

Compound: CN(C)C(=N)NC(=N)N [Metformin] + CC1(C)CCC(c2ccc(Cl)cc2)=C(CN2CCN(c3ccc(C(=O)NS(=O)(=O)c4ccc(N[C@H](CCN5CCOCC5)CSc5ccccc5)c(S(=O)(=O)C(F)(F)F)c4)cc3)CC2)C1 [Navitoclax] (partner 0.5 µM)
Experiment: relative viability (nuclei count vs DMSO), 5 days (fraction); higher = more cells survive
Conditions: first compound 10 µM
Method in brief: (§1)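 A single step with final 0.05% Triton X-100, 1% formaldehyde and 1 ug/ml Hoechst fixed the cells and stained nuclei 5 days after treatment. Lung cancer cell lines in 1536-well plates had been treated by pin tool the day after seeding with one drug alone or a fixed anchor-drug dose plus five library-drug doses (not always all listed) in √10 steps, and nuclei were counted on 4× images. Relative viability is the ratio of nuclei in treated wells to nuclei in vehicle wells, taken as the median of duplicate plates.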

In order of falling relative viability:
1. EPLC-272H  1.23
2. NCI-H1703  1.18
3. HARA  1.13
4. HCC-366  1.12
5. NCI-H1299  1.12
6. EMC-BAC-2  1.1
7. A-427  1.01
8. ChaGo-K-1  1
9. HCC-78  0.994
10. HCC-44  0.99
11. COR-L23  0.984
12. HOP-62  0.922
13. A549  0.895
14. LK-2  0.86
15. COR-L 105  0.812
16. Calu-6  0.726
17. HCC-15  0.686
18. EKVX  0.681
19. H3255  0.503
20. NCI-H727  0.503
21. LCLC-97TM1  0.44
22. EBC-1  0.364
23. BEN  0.0532

Same assay, conditions: first compound 31.62 µM

In order of falling relative viability:
1. ChaGo-K-1  1.42
2. CAL-12T  1.35
3. 201T  1.26
4. EMC-BAC-2  1.17
5. HCC-78  1.17
6. LK-2  1.15
7. NCI-H1703  1.15
8. HCC-366  1.12
9. NCI-H1299  1.11
10. EPLC-272H  1.1
11. HARA  1.1
12. HCC-44  1.08
13. A549  1.03
14. A-427  1
15. HCC-827  0.96
16. IA-LM  0.93
17. COR-L 105  0.923
18. EKVX  0.889
19. HOP-62  0.845
20. COR-L23  0.839
21. Calu-6  0.784
22. HCC-15  0.726
23. H3255  0.623
24. NCI-H1792  0.528
25. NCI-H727  0.514
26. EBC-1  0.405
27. LCLC-97TM1  0.339
28. LC-2-ad  0.26
29. BEN  0.0708

Same assay, conditions: first compound 100 µM

In order of falling relative viability:
1. HARA  1.2
2. LK-2  1.2
3. 201T  1.17
4. NCI-H1703  1.16
5. NCI-H1299  1.15
6. CAL-12T  1.14
7. EMC-BAC-2  1.1
8. HCC-366  1.06
9. A549  1.04
10. EPLC-272H  1.04
11. HOP-62  1.04
12. HCC-78  1.01
13. HCC-827  0.982
14. A-427  0.969
15. EKVX  0.968
16. HCC-44  0.957
17. ChaGo-K-1  0.95
18. IA-LM  0.941
19. COR-L23  0.909
20. NCI-H1792  0.857
21. Calu-6  0.855
22. COR-L 105  0.843
23. HCC-15  0.719
24. H3255  0.571
25. LCLC-97TM1  0.547
26. NCI-H727  0.496
27. EBC-1  0.356
28. LC-2-ad  0.167
29. BEN  0.0914

Same assay, conditions: first compound 316.23 µM

In order of falling relative viability:
1. CAL-12T  1.29
2. 201T  1.16
3. NCI-H1299  1.15
4. EPLC-272H  1.1
5. EMC-BAC-2  1.09
6. HARA  1.02
7. HCC-78  1
8. HCC-366  0.991
9. HOP-62  0.989
10. A-427  0.978
11. LK-2  0.933
12. COR-L23  0.932
13. ChaGo-K-1  0.93
14. HCC-827  0.923
15. HCC-44  0.888
16. NCI-H1703  0.854
17. A549  0.843
18. EKVX  0.779
19. Calu-6  0.7
20. IA-LM  0.686
21. COR-L 105  0.654
22. HCC-15  0.618
23. NCI-H1792  0.538
24. H3255  0.531
25. NCI-H727  0.512
26. EBC-1  0.362
27. LCLC-97TM1  0.276
28. LC-2-ad  0.18
29. BEN  0.0748

Same assay, conditions: first compound 1000 µM

In order of rising relative viability:
1. BEN  0.0712
2. A549  0.297
3. LC-2-ad  0.311
4. H3255  0.355
5. EBC-1  0.442
6. LCLC-97TM1  0.486
7. NCI-H727  0.535
8. COR-L 105  0.571
9. NCI-H1792  0.617
10. Calu-6  0.619
11. IA-LM  0.645
12. HCC-15  0.699
13. NCI-H1703  0.735
14. A-427  0.887
15. EKVX  0.948
16. HOP-62  0.986
17. HCC-827  1.01
18. COR-L23  1.04
19. HCC-44  1.06
20. HCC-78  1.06
21. HCC-366  1.06
22. CAL-12T  1.09
23. NCI-H1299  1.12
24. EMC-BAC-2  1.15
25. HARA  1.16
26. 201T  1.17
27. LK-2  1.2
28. ChaGo-K-1  1.24
29. EPLC-272H  1.4

Compound: N#CC1(c2ccc(NC(=O)c3cccnc3NCc3ccncc3)cc2)CCCC1 [Apatinib] + CC1(C)CCC(c2ccc(Cl)cc2)=C(CN2CCN(c3ccc(C(=O)NS(=O)(=O)c4ccc(N[C@H](CCN5CCOCC5)CSc5ccccc5)c(S(=O)(=O)C(F)(F)F)c4)cc3)CC2)C1 [Navitoclax] (partner 0.5 µM)
Experiment: as above
Conditions: first compound 0.08 µM
Method in brief: as §1

In order of falling relative viability:
1. CAL-12T  1.26
2. 201T  1.2
3. EMC-BAC-2  1.2
4. A549  1.18
5. HARA  1.15
6. EPLC-272H  1.06
7. COR-L23  1.05
8. A-427  0.929
9. EKVX  0.882
10. Calu-6  0.791
11. COR-L 105  0.665
12. H3255  0.512
13. EBC-1  0.5
14. BEN  0.0553
